Where two headings read alike, the source gives them in different places.
Assays:
Staphylococcus hominis [1] = test: minimal inhibition concentration (MIC) against Staphylococcus hominis; assay type: cell-based; settings: O.D600 nm after 24 hours incubation at 37° C. with agitation, FIG. 4
Procedure: N-terminal acetylation of peptides is known to enhance fibril formation. Therefore, the bacterial growth of Staphylococcus hominis was tested by capped peptides of SEQ ID NO: 1 and 2. […] The lowest concentration at which no growth was observed is determined as the MIC. The experiment was performed in triplicates.

Staphylococcus hominis [2] = test: growth of Staphylococcus hominis after treatment with 0.5 mM peptide; assay type: cell-based; settings: 24 hours, 37° C. under agitation, FIG. 6
Procedure: (§1) Extended fragments of the LFKFFK (SEQ ID NO: 1) sequence were derived from Staphylococcus aureus (PSMα3 derivatives) in order to determine the minimum peptide length critical for the antibacterial activity. […] Therefore, the antibacterial activity of its fragments comprising SEQ ID NO: 1, as listed in Table 1, were examined on the growth of Staphylococcus epidermidis ATCC 12228 cells, Staphylococcus hominis, and Lactobacillus casei after 24 hours from treatment with 0.5 mM peptide at 37° C. under agitation compared to control (bacterial growth w/o peptide). Lactobacillus casei are probiotic bacteria. Therefore, the peptides listed in Table 1 were also tested against bacteria of the human flora.

[3] = test system: Staphylococcus epidermidis ATCC 12228; test: antibacterial activity (MIC) of fragments against Staphylococcus epidermidis ATCC 12228; assay type: cell-based; settings: FIG. 5
Procedure: as §1

Micrococcus luteus = test: diameter of the growth inhibition of Micrococcus luteus cells; assay type: cell-based; settings: for growth inhibition of Micrococcus luteus: FIG. 2A; for diameter of the growth inhibition of Micrococcus luteus: various concentrations
Description: The anti-bacterial activity of LFKFFK peptide (SEQ ID NO: 1), KLFKFFK peptide (SEQ ID NO: 3) and control peptides with a hydrophobic/cationic amino-acid composition, IIKVIK (SEQ ID NO: 10) and IIKIIK (SEQ ID NO: 11), was examined by determining the diameter of the growth inhibition of Micrococcus luteus cells.

bacteria = settings: native full-length 22-residue peptide, cited from earlier work

For “Ac-KLFKFFK-NH2 (listed as Staphylococcus aureus) [compound 2]”, the MIC (Staphylococcus hominis [1]) was 15 and the “antibacterial effect against S. hominis (growth compared to control w/o peptide)” value (Staphylococcus hominis [2]) was “partially active”.
With “Ac-KLFKFFKD-NH2 (listed as Staphylococcus aureus) [compound 3]” the “antibacterial effect against S. hominis (growth compared to control w/o peptide)” value (Staphylococcus hominis [2]) was “partially active”.
For “Ac-KLFKFFKDLL-NH2 (listed as Staphylococcus aureus) [compound 5]”, the “anti-bacterial activity (MIC) against Staphylococcus epidermidis ATCC 12228” value (“anti-bacterial activity (MIC)” for short) [3] was “better anti-bacterial activity”.
With “Ac-KLFKFFKDLLG-NH2 (listed as Staphylococcus aureus) [compound 6]” the “anti-bacterial activity (MIC)” value [3] was “better anti-bacterial activity”.
For “Ac-LFKFFK-NH2 (listed as Staphylococcus aureus) [compound 1]”, the “antibacterial effect against S. hominis (growth compared to control w/o peptide)” value (Staphylococcus hominis [2]) was “partially active”.
For “Ac-VAKLFKFFKDLLGKFL-NH2 (listed as Staphylococcus aureus) [peptide 8]”, the “anti-bacterial activity (MIC)” value [3] was “fails to exhibit any antibacterial activity”.
For “KLFKFFK (listed as Staphylococcus aureus)”, the “growth inhibition of Micrococcus luteus” value (Micrococcus luteus) was “inhibit the growth”, the “toxicity to Micrococcus Luteus compared with LFKFFK” value (Micrococcus luteus; FIG. 2B) was “even more toxic” and the “diameter of the growth inhibition of Micrococcus luteus” value (Micrococcus luteus; FIG. 2B) was “dose-dependent effect”.
For “LFKFFK (listed as Staphylococcus aureus) [fragment of PSMalpha3]”, the “growth inhibition of Micrococcus luteus” value (Micrococcus luteus) was “inhibit the growth” and the “diameter of the growth inhibition of Micrococcus luteus” value (Micrococcus luteus; FIG. 2B) was “dose-dependent effect”.
For MEFVAKLFKFFKDLLGKFLGNN [PSMalpha3], the antibacterial activity (bacteria) is given as “lacks antibacterial activity” and the antibacterial activity (bacteria; listed as SEQ ID NO: 2) is given as “lack an antibacterial activity”.
